# Experiments:
# Assay in all cases: relative viability (nuclei count vs DMSO), 5 days (fraction); higher = more cells survive
# [1] = tested on: NCI-H1666
# Procedure, shortened: (§1)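 Lung cancer cell lines in 1536-well plates got either a single drug or a fixed anchor-drug dose together with five library-drug doses (not always all listed) in √10 steps, by pin tool, on the day after seeding. Nuclei were counted after 5 days, and relative viability is the treated-to-vehicle ratio of nuclei counts. Values are medians of duplicate plates.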
# [2] = tested on: NCI-H1915
# Procedure, shortened: as §1
# [3] = tested on: NCI-H1755
# Procedure, shortened: as §1
# [4] = tested on: A-427
# Procedure, shortened: as §1
# [5] = tested on: NCI-H2170
# Procedure, shortened: as §1
# [6] = tested on: NCI-H2023
# Procedure, shortened: as §1
# [7] = tested on: BEN
# Procedure, shortened: as §1
# [8] = tested on: NCI-H460
# Procedure, shortened: as §1
# [9] = tested on: NCI-H1395
# Procedure, shortened: as §1
# [10] = tested on: LCLC-97TM1
# Procedure, shortened: as §1
# [11] = tested on: NCI-H1944
# Procedure, shortened: as §1
# [12] = tested on: SK-LU-1
# Procedure, shortened: as §1
# [13] = tested on: NCI-H1793
# Procedure, shortened: as §1
# [14] = tested on: NCI-H650
# Procedure, shortened: as §1
# [15] = tested on: LU99A
# Procedure, shortened: as §1
# [16] = tested on: LXF-289
# Procedure, shortened: as §1
# [17] = tested on: NCI-H2126
# Procedure, shortened: as §1
# [18] = tested on: PC-3 [JPC-3]
# Procedure, shortened: as §1
# [19] = tested on: HARA
# Procedure, shortened: as §1
# [20] = tested on: NCI-H23
# Procedure, shortened: as §1
# [21] = tested on: LOU-NH91
# Procedure, shortened: as §1
# [22] = tested on: NCI-H441
# Procedure, shortened: as §1
# [23] = tested on: NCI-H322M
# Procedure, shortened: as §1
smiles,measurement,setting,value
O=C(O)CCCCC(CCSCc1ccccc1)SCc1ccccc1 (centres undefined) [CPI-613] + Nc1nc2[nH]cc(CCc3ccc(C(=O)N[C@@H](CCC(=O)O)C(=O)O)cc3)c2c(=O)[nH]1 [Pemetrexed] (partner 0.2 µM),relative viability,[1]; first compound 5 µM,0.892
same,relative viability,[1]; first compound 15.81 µM,0.857
same,relative viability,[1]; first compound 50 µM,0.835
same,relative viability,[1]; first compound 158.11 µM,0.489
same,relative viability,[1]; first compound 500 µM,0.471
same,relative viability,[2]; first compound 5 µM,0.415
same,relative viability,[2]; first compound 15.81 µM,0.513
same,relative viability,[2]; first compound 50 µM,0.458
same,relative viability,[2]; first compound 158.11 µM,0.409
same,relative viability,[2]; first compound 500 µM,0.0364
same,relative viability,[3]; first compound 5 µM,0.436
same,relative viability,[3]; first compound 15.81 µM,0.57
same,relative viability,[3]; first compound 50 µM,0.371
same,relative viability,[3]; first compound 158.11 µM,0.396
same,relative viability,[3]; first compound 500 µM,0.372
same,relative viability,[4]; first compound 5 µM,1.04
same,relative viability,[4]; first compound 15.81 µM,0.84
same,relative viability,[4]; first compound 50 µM,0.928
same,relative viability,[4]; first compound 158.11 µM,0.857
same,relative viability,[4]; first compound 500 µM,0.444
same,relative viability,[5]; first compound 5 µM,0.278
same,relative viability,[5]; first compound 15.81 µM,0.251
same,relative viability,[5]; first compound 50 µM,0.244
same,relative viability,[5]; first compound 158.11 µM,0.26
same,relative viability,[5]; first compound 500 µM,0.227
same,relative viability,[6]; first compound 5 µM,0.233
same,relative viability,[6]; first compound 15.81 µM,0.2
same,relative viability,[6]; first compound 50 µM,0.175
same,relative viability,[6]; first compound 158.11 µM,0.0911
same,relative viability,[6]; first compound 500 µM,0.0103
same,relative viability,[7]; first compound 5 µM,0.809
same,relative viability,[7]; first compound 15.81 µM,0.571
same,relative viability,[7]; first compound 50 µM,0.763
same,relative viability,[7]; first compound 158.11 µM,0.76
same,relative viability,[7]; first compound 500 µM,0.703
same,relative viability,[8]; first compound 5 µM,0.0641
same,relative viability,[8]; first compound 15.81 µM,0.0607
same,relative viability,[8]; first compound 50 µM,0.0741
same,relative viability,[8]; first compound 158.11 µM,0.0795
same,relative viability,[8]; first compound 500 µM,0.0168
same,relative viability,[9]; first compound 5 µM,0.942
same,relative viability,[9]; first compound 15.81 µM,0.671
same,relative viability,[9]; first compound 50 µM,0.868
same,relative viability,[9]; first compound 158.11 µM,0.723
same,relative viability,[9]; first compound 500 µM,0.598
same,relative viability,[10]; first compound 5 µM,0.166
same,relative viability,[10]; first compound 15.81 µM,0.208
same,relative viability,[10]; first compound 50 µM,0.176
same,relative viability,[10]; first compound 158.11 µM,0.162
same,relative viability,[10]; first compound 500 µM,0.0608
same,relative viability,[11]; first compound 5 µM,0.647
same,relative viability,[11]; first compound 15.81 µM,0.575
same,relative viability,[11]; first compound 50 µM,0.577
same,relative viability,[11]; first compound 158.11 µM,0.339
same,relative viability,[11]; first compound 500 µM,0.408
same,relative viability,[12]; first compound 5 µM,0.958
same,relative viability,[12]; first compound 15.81 µM,0.88
same,relative viability,[12]; first compound 50 µM,0.87
same,relative viability,[12]; first compound 158.11 µM,0.22
same,relative viability,[12]; first compound 500 µM,0.0978
same,relative viability,[13]; first compound 5 µM,0.895
same,relative viability,[13]; first compound 15.81 µM,0.71
same,relative viability,[13]; first compound 50 µM,0.832
same,relative viability,[13]; first compound 158.11 µM,0.378
same,relative viability,[13]; first compound 500 µM,0.0257
same,relative viability,[14]; first compound 5 µM,1.01
same,relative viability,[14]; first compound 15.81 µM,0.821
same,relative viability,[14]; first compound 50 µM,0.897
same,relative viability,[14]; first compound 158.11 µM,0.641
same,relative viability,[14]; first compound 500 µM,0.826
same,relative viability,[15]; first compound 5 µM,0.179
same,relative viability,[15]; first compound 15.81 µM,0.199
same,relative viability,[15]; first compound 50 µM,0.179
same,relative viability,[15]; first compound 158.11 µM,0.186
same,relative viability,[15]; first compound 500 µM,0.183
same,relative viability,[16]; first compound 5 µM,0.903
same,relative viability,[16]; first compound 15.81 µM,0.828
same,relative viability,[16]; first compound 50 µM,0.851
same,relative viability,[16]; first compound 158.11 µM,0.757
same,relative viability,[16]; first compound 500 µM,0.568
same,relative viability,[17]; first compound 5 µM,0.65
same,relative viability,[17]; first compound 15.81 µM,0.632
same,relative viability,[17]; first compound 50 µM,0.636
same,relative viability,[17]; first compound 158.11 µM,0.385
same,relative viability,[17]; first compound 500 µM,0.219
same,relative viability,[18]; first compound 5 µM,1.13
same,relative viability,[18]; first compound 50 µM,1.11
same,relative viability,[18]; first compound 158.11 µM,0.606
same,relative viability,[18]; first compound 500 µM,0.362
same,relative viability,[19]; first compound 5 µM,0.26
same,relative viability,[19]; first compound 15.81 µM,0.229
same,relative viability,[19]; first compound 50 µM,0.236
same,relative viability,[19]; first compound 158.11 µM,0.269
same,relative viability,[19]; first compound 500 µM,0.0403
same,relative viability,[20]; first compound 5 µM,0.673
same,relative viability,[20]; first compound 15.81 µM,0.621
same,relative viability,[20]; first compound 50 µM,0.544
same,relative viability,[20]; first compound 158.11 µM,0.19
same,relative viability,[20]; first compound 500 µM,0.0031
same,relative viability,[21]; first compound 5 µM,0.389
same,relative viability,[21]; first compound 15.81 µM,0.332
same,relative viability,[21]; first compound 50 µM,0.367
same,relative viability,[21]; first compound 158.11 µM,0.399
same,relative viability,[21]; first compound 500 µM,0.233
same,relative viability,[22]; first compound 5 µM,0.266
same,relative viability,[22]; first compound 15.81 µM,0.242
same,relative viability,[22]; first compound 50 µM,0.236
same,relative viability,[22]; first compound 158.11 µM,0.151
same,relative viability,[22]; first compound 500 µM,0.0045
same,relative viability,[23]; first compound 5 µM,0.617
same,relative viability,[23]; first compound 15.81 µM,0.58
same,relative viability,[23]; first compound 50 µM,0.616
same,relative viability,[23]; first compound 158.11 µM,0.637
same,relative viability,[23]; first compound 500 µM,0.441

# From the supplement of paper PMC10307832
